In ChEMBL document CHEMBL5244260, “Aldose reductase and protein tyrosine phosphatase 1B inhibitors as a promising therapeutic approach for diabetes mellitus” (Eur J Med Chem, 2020):
One block for each molecule: values may come before it.

Columns and labels:
[1] = molecular target: T1, Tyrosine-protein phosphatase non-receptor type 7 (Homo sapiens, UniProt P35236); assay: Inhibition of HEPTP (unknown origin)
T1 sequence (P35236 whole entry): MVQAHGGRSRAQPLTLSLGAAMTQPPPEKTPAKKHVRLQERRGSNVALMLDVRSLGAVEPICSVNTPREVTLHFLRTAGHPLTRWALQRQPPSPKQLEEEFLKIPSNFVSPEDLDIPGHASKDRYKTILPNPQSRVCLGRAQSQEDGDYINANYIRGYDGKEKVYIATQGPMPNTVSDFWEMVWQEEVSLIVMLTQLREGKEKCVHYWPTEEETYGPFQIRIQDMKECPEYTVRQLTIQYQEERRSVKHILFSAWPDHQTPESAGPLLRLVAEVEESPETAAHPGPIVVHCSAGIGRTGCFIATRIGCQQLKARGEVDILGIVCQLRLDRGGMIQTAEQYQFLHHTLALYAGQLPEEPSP

[2] = molecular target: Receptor-type tyrosine-protein phosphatase alpha (Homo sapiens, UniProt P18433); assay: Inhibition of PTPalpha (unknown origin)
Chain of Receptor-type tyrosine-protein phosphatase alpha (P18433 whole entry): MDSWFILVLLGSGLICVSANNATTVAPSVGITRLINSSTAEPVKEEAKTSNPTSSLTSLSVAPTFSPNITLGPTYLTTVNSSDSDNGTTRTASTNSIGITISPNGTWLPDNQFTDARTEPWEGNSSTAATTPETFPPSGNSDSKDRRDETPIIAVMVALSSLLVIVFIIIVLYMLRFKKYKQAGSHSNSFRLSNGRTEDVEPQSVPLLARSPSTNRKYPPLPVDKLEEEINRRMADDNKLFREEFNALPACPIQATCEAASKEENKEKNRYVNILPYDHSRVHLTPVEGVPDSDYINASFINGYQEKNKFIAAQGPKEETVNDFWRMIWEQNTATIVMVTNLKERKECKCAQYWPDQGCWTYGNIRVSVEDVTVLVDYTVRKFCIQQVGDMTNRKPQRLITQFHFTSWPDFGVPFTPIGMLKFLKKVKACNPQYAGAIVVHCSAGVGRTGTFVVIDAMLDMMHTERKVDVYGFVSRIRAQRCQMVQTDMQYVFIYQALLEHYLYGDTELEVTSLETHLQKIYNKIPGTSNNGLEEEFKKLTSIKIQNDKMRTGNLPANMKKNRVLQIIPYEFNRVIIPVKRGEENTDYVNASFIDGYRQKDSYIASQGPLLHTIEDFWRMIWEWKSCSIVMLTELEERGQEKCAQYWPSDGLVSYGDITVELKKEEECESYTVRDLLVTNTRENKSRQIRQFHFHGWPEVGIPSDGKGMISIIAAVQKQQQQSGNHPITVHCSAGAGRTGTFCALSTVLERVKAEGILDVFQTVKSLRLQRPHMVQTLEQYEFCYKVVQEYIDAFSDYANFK

Mus musculus = assay: Anti-diabetic activity in ob/ob diabetic C57BL/6J mouse assessed as decrease in glucose level at 25 mg/kg,po dosed for 4 days; type: functional; parameters: scale not given: the % may be the effect or the level left; settings: time 4 day
[3] = Inhibition of human recombinant ALR1 expressed in Escherichia coli by Coomassie reagent assay
[4] = molecular target: T2, Tyrosine-protein phosphatase non-receptor type 1 (Homo sapiens, UniProt P18031); assay: Inhibition of human recombinant PTP1B (1 to 321 residues) expressed in Escherichia coli BL21 assessed as inhibition constant using pNPP as substrate
T2 sequence (P18031 whole entry): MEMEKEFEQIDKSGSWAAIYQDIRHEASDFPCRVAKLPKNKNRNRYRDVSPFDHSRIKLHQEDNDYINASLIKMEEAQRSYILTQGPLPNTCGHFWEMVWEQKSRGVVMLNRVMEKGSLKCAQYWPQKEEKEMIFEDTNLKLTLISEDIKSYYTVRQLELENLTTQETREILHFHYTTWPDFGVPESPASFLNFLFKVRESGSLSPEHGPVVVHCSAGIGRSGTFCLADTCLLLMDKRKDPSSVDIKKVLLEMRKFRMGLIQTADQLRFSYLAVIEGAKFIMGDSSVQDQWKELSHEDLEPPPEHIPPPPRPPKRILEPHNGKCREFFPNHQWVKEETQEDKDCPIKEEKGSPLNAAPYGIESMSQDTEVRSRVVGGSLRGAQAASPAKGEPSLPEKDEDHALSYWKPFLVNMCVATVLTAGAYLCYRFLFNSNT

[5] = molecular target: T3, Aldo-keto reductase family 1 member B1 (Homo sapiens, UniProt P15121); assay: Inhibition of human ALR2 assessed as inhibition constant
Homo sapiens [6] = species on record: Homo sapiens; assay: Selectivity ratio of IC50 for PTP1B (unknown origin) to IC50 for YOP (unknown origin)
Homo sapiens [7] = species on record: Homo sapiens; assay: Selectivity ratio of IC50 for PTP1B (unknown origin) to IC50 for Protein phosphatase-lambda (unknown origin)
Homo sapiens [8] = species on record: Homo sapiens; assay: Selectivity ratio of IC50 for PTP1B (unknown origin) to IC50 for LAR (unknown origin)
[9] = molecular target: T2, Tyrosine-protein phosphatase non-receptor type 1; assay: Inhibition of PTP1B (unknown origin) using flurogenic substrate by fluorescence plate reader assay
Homo sapiens [10] = species on record: Homo sapiens; assay: Selectivity ratio of IC50 for PTP1B (unknown origin) to IC50 for PP1 (unknown origin)
Homo sapiens [11] = species on record: Homo sapiens; assay: Selectivity ratio of IC50 for PTP1B (unknown origin) to IC50 for TCPTP (unknown origin)
[12] = molecular target: T4, Aldo-keto reductase family 1 member B1 (Rattus norvegicus, UniProt P07943); assay: Inhibition of recombinant Aldose reductase in rat lens using D,L-glyceraldehyde as substrate in presence of NADPH measured after 4 mins by spectrophotometric assay; type: tissue-based
[13] = Inhibition of ALR2 in Sprague-Dawley rat lens using D,L-glyceraldehyde as substrate preincubated for 10 mins in presence of NADPH followed by substrate addition and measured after 5 mins by spectrophotometric assay; type: tissue-based
[14] = molecular target: T2, Tyrosine-protein phosphatase non-receptor type 1; assay: Inhibition of PTP1B (unknown origin) assessed as inhibition constant using pNPP as substrate
[15] = molecular target: T2, Tyrosine-protein phosphatase non-receptor type 1; assay: Inhibition of human PTP1B using pNPP as substrate incubated for 30 min
Homo sapiens [16] = species on record: Homo sapiens; assay: Selectivity ratio of Ki for PTP1B (unknown origin) to Ki for LAR (unknown origin)
Homo sapiens [17] = species on record: Homo sapiens; assay: Selectivity ratio of Ki for PTP1B (unknown origin) to Ki for PTPalpha (unknown origin)
[18] = Inhibition of ALR2 in Wistar rat lens using D,L-glyceraldehyde as substrate preincubated for 10 mins in presence of NADPH followed by substrate addition and measured after 5 mins by spectrophotometric assay; type: tissue-based
[19] = molecular target: T4, Aldo-keto reductase family 1 member B1; assay: Inhibition of ALR in Fischer-344 rat lens using D,L-glyceraldehyde as substrate in presence of NADPH measured after 3 mins by spectrophotometric assay; type: tissue-based
[20] = molecular target: T2, Tyrosine-protein phosphatase non-receptor type 1; assay: Inhibition of PTP1B (1 to 321 residues) (unknown origin) expressed in Escherichia coli BL21 assessed as inhibition constant using pNPP as substrate incubated for 60 min by Michaelis-Menten analysis
[21] = molecular target: T3, Aldo-keto reductase family 1 member B1; assay: Inhibition of human Aldose reductase using glyceraldehyde as substrate preincubated for 5 mins in presence of NADPH followed by substrate addition and measured after 3 mins by UV-visible spectrophotometric assay
[22] = molecular target: T4, Aldo-keto reductase family 1 member B1; assay: Inhibition of Aldose reductase in rat lens using D,L-glyceraldehyde as substrate in presence of NADPH by spectrophotometric assay; type: tissue-based

SMILES: O=C(O)[C@H](Cc1ccccc1)Oc1ccc(-c2ccc(-c3c(Cc4ccccc4)oc4ccccc34)cc2)cc1
IC50 [1]: 7100 nM
IC50 [2]: 33700 nM
Activity (Mus musculus): 27%

IC50 [3]: 35000 nM
SMILES: O=C(O)COc1cc(F)ccc1C(=S)NCc1cccc([N+](=O)[O-])c1

Ki [4]: 250 nM
SMILES: CCCCCNC(=O)[C@H](Cc1ccc(OCC(=O)O)c(C(=O)O)c1)NC(=O)[C@H](Cc1ccccc1)NC(=O)CCC(=O)O

Ki [5]: 2000 nM
SMILES: N#Cc1ccc(CNC(=O)c2ccc(Cl)cc2OCC(=O)O)cc1

Ratio IC50 (Homo sapiens [6]): 10
Ratio IC50 (Homo sapiens [7]): 10
Ratio IC50 (Homo sapiens [8]): 10
IC50 [9]: 4700 nM
Ratio IC50 (Homo sapiens [10]): 10
Ratio IC50 (Homo sapiens [11]): 10
SMILES: COC(=O)C(O)c1ccc(NC(=O)CCCCn2cc(COc3ccc(-c4cc(C(=O)O)no4)cc3)nn2)cc1 (centres undefined)

IC50 [12]: 3000 nM
SMILES: O=C1CC2(C(=O)N1)c1ccc(O)cc1C=Cc1cc(O)ccc12

IC50 [13]: 360 nM
SMILES: O=C(O)Cn1c2ccccc2n2c(=O)c(=O)n(Cc3ccccc3)nc12

Ki [14]: 1200 nM
SMILES: CCCCCNC(=O)[C@H](Cc1ccc(OC(C(=O)O)C(=O)O)cc1)NC(=O)[C@H](Cc1ccccc1)NC(=O)CCC(=O)O

IC50 [15]: 280 nM
SMILES: CCCCCCS(=O)(=O)NC(=O)c1ccc(CSCc2ccc(-c3ccccc3)cc2)cc1

Ratio Ki (Homo sapiens [16]): 20
Ratio Ki (Homo sapiens [17]): 20
SMILES: O=C(O)COc1ccc(-c2cc(NC(=O)C(=O)O)c(C(=O)O)s2)cc1

IC50 [18]: 126 nM
SMILES: O=C(O)CC1=CN(/C=C/c2ccc(O)c(O)c2)S(=O)(=O)c2ccccc21

IC50 [19]: 49 nM
SMILES: O=C(O)Cn1ccc(-c2nc3ccccc3s2)c1

Ki [20]: 600 nM
SMILES: O=C(O)C(=O)Nc1sc2c(c1C(=O)O)COC(COC1=NS(=O)(=O)c3ccccc31)C2 (centres undefined)

IC50 [21]: 1300 nM
SMILES: Nc1ccc(CNC(=O)c2ccc(Cl)cc2OCC(=O)O)c(F)c1

IC50 [12]: 3400 nM
SMILES: COc1ccc2c(c1)C=Cc1cc(OC)ccc1C2/C=C1\SC(=O)NC1=O

IC50 [22]: 45000 nM
SMILES: CC(C)NC(=O)NS(=O)(=O)c1ccc(-n2nc(-c3ccc(F)cc3)ccc2=O)cc1
